Key:
TFAP2E [1] = assay: TFAP2E mRNA expression by RT-PCR in CRC cell lines after drug treatment; type: cell-based, human
Procedure: Colon cancer cell lines LOVO and DLD-1 were obtained from the Deutsche Sammlung von Mikroorganismen und Zellkulturen GmbH (Braunschweig, Germany). SW480, HT-29, HCT-116 and CACO-2 colon cancer cell lines were obtained from ATCC (Washington, D.C., USA). Cells were cultured in 90% DMEM medium supplemented with 10% fetal bovine serum and 2 mM L-glutamine (Invitrogen, Karslruhe, Germany). CACO-2 cells were maintained in 80% DMEM with 20% FBS. […] Culture medium was changed daily for 3 days with recurrent 5-aza-2-deoxycytidine additions. After 3 days, the cells were harvested for total RNA extraction with the RNeasy Total RNA Mini Kit (Qiagen, Hilden, Germany).
The RNA and DNA extraction from cell lines or 10-25 mg of frozen tissue samples was carried out using the RNeasy Total RNA Mini Kit or the QIAmp DNA Mini Kit (Qiagen, Hilden, Germany) respectively, using the manufacturer's instructions.
(§1) Genomic DNA was treated with the Epitect Bisulfite Conversion Kit (Qiagen, Hilden, Germany) according to the manufacturer's instructions and then analyzed using the MethyLight technique or MS-HRM as previously described. Cutoff values giving the best discrimination between non-neoplastic mucosa and tumor samples were determined by receiver operating characteristic (ROC) analysis. The expression analysis of the mRNA was performed by RT-PCR with the Verso cDNA Kit (Thermo Fischer, Darmstadt, Germany) according to the manufacturer's instructions.

SW480 cells = assay: Cell survival after drug exposure (MTT assay), transfected SW480 cells
colorectal cancer = assay: Treatment response in colorectal cancer patient cohorts (RECIST or histology); type: in vivo, human; details: Cohort IV (München), primary rectal cancer, chemoradiotherapy (intravenous 5-FU and 45.0 Gy), 68 patients, histological criteria
Procedure: Samples were obtained from patients undergoing colorectal cancer surgery or chemotherapy at the University Hospitals in Munich, Mannheim, Bochum, Berlin and Dresden (all Germany). Tissues were obtained during resection of the primary tumor or by biopsy. […] Response to chemotherapy was assessed by RECIST criteria, response to chemoradiotherapy by histology as previously described.

DKK4 = DKK4 mRNA expression in untransfected CRC cell lines; type: cell-based, human; details: SW480 and CACO-2 cells; after 5-azacytidine treatment
Procedure: (§2) Colon cancer cell lines LOVO and DLD-1 were obtained from the Deutsche Sammlung von Mikroorganismen und Zellkulturen GmbH (Braunschweig, Germany). SW480, HT-29, HCT-116 and CACO-2 colon cancer cell lines were obtained from ATCC (Washington, D.C., USA). Cells were cultured in 90% DMEM medium supplemented with 10% fetal bovine serum and 2 mM L-glutamine (Invitrogen, Karslruhe, Germany). CACO-2 cells were maintained in 80% DMEM with 20% FBS. Cells were seeded at a density of 1×10^6 cells/60-mm dish, after twenty-four hours incubated with 5-aza-cytidine (final concentration 10 μmol/L; Sigma, Munich, Germany) or the same amount of DMSO as control. Culture medium was changed daily for 3 days with recurrent 5-aza-2-deoxycytidine additions. After 3 days, the cells were harvested for total RNA extraction with the RNeasy Total RNA Mini Kit (Qiagen, Hilden, Germany).
as §1, with “The expression analysis of the mRNA was performed by RT-PCR with the Verso cDNA Kit (Thermo Fischer, Darmstadt, Germany) according to the manufacturer's instructions.” left out

TFAP2E [2] = assay: MethyLight analysis of TFAP2E methylation in CRC cell lines; type: cell-based, human; details: all CRC cell lines; after 5-azacytidine treatment
Procedure: as §2
Primers for methylated TFAP2E covered CpGs in the second CpG island (FIG. 5). […]
as §1, with “The expression analysis of the mRNA was performed by RT-PCR with the Verso cDNA Kit (Thermo Fischer, Darmstadt, Germany) according to the manufacturer's instructions.” left out

## CC(/C=C/C(=O)NO)=C\[C@@H](C)C(=O)c1ccc(N(C)C)cc1 [Trichostatin A]
TFAP2E [1]; CACO-2 cells, Trichostatin A treatment
  TFAP2E expression after treatment: weak expression
TFAP2E [1]; CRC cell lines except CACO-2, Trichostatin A treatment
  TFAP2E mRNA levels: no effect

## O=c1[nH]cc(F)c(=O)[nH]1 [5-FU, 5-fluorouracil]
SW480 cells; SW480 transfected with both pTFAP2E and pcDNA3-Dkk4
  responsiveness to 5-FU: intermediate responsiveness
SW480 cells; SW480 transiently transfected with pTFAP2E, 5-FU 50 μg/ml, after 2 days
  decrease in survival compared to controls: about 20%
SW480 cells; SW480 transiently transfected with pcDNA3-Dkk4, 5-FU 50 μg/ml, after 2 days
  increase in survival compared to controls: about 10%
Colorectal cancer
  patients classified as responders: 47%

## Nc1ncn([C@@H]2O[C@H](CO)[C@@H](O)[C@H]2O)c(=O)n1 [5-azacytidine]
TFAP2E [1]; CACO-2 and SW480 cells, 5-aza-cytidine 10 μmol/L, 3 days
  TFAP2E expression (RT-PCR): showed expression after 5-aza-cytidine treatment only
DKK4
  DKK4 expression: lost
TFAP2E [2]
  TFAP2E methylation (MethyLight): declined
